Several values for one entry are separate records, joined by “and”; a condition that tells them apart may be missing. Identical values can stand only once. Toxic doses and inconclusive results are not listed.
Test system: CD2F1 mice, L1210 leukemia ip, survival T/C
Assay: NCI In Vivo Anticancer Drug Screen. Data for tumor model L1210 Leukemia (intraperitoneal) in CD2F1 (CDF1) mice
Settings: higher = longer survival
Outline: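 Activity against a transplanted murine tumor was judged by comparing the compound group with a vehicle group. The outcome in the treated animals was divided by that in the controls.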

S=c1nc[nH]c2nc[nH]c12
T/C (endpoint: mean survival time, dose: 180.0 mg/kg/injection, schedule: Q## X002 (ip), vehicle: saline): 164 % of control | T/C (endpoint: mean survival time, dose: 180.0 mg/kg/injection, schedule: Q## X009 (ip), vehicle: saline): 154 % of control | T/C (endpoint: mean survival time, dose: 270.0 mg/kg/injection, schedule: Q## X006 (ip), vehicle: saline): 150 % of control | T/C (endpoint: mean survival time, dose: 270.0 mg/kg/injection, schedule: Q## X009 (ip), vehicle: saline): 153 % of control | T/C (endpoint: median survival time, dose: 15.6 mg/kg/injection, schedule: Q01DX009 (ip), vehicle: alkali diluted with saline): 116 % of control | T/C (endpoint: median survival time, dose: 18.0 mg/kg/injection, schedule: Q01DX009 (ip), vehicle: alkali diluted with saline): 118 % of control | T/C (endpoint: median survival time, dose: 20.0 mg/kg/injection, schedule: Q01DX005 (ip), vehicle: water): 187 % of control | T/C (endpoint: median survival time, dose: 25.0 mg/kg/injection, schedule: Q01DX009 (ip), vehicle: Klucel (hydroxypropylcellulose) (HPC)): 182 % of control | T/C (endpoint: median survival time, dose: 25.0 mg/kg/injection, schedule: Q01DX009 (ip), vehicle: alkali diluted with water): 122 % of control | T/C (endpoint: median survival time, dose: 25.9 mg/kg/injection, schedule: Q01DX009 (ip), vehicle: alkali diluted with saline): 124 % of control | T/C (endpoint: median survival time, dose: 26.0 mg/kg/injection, schedule: Q01DX009 (ip), vehicle: Klucel (hydroxypropylcellulose) (HPC)): 170 % of control | T/C (endpoint: median survival time, dose: 30.0 mg/kg/injection, schedule: Q01DX009 (ip), vehicle: alkali diluted with saline): 121 % of control | T/C (endpoint: median survival time, dose: 37.5 mg/kg/injection, schedule: Q04DX003 (ip), vehicle: Klucel (hydroxypropylcellulose) (HPC)): 154 % of control | T/C (endpoint: median survival time, dose: 40.0 mg/kg/injection, schedule: Q01DX005 (ip), vehicle: water): 310 % of control | T/C (endpoint: median survival time, dose: 40.0 mg/kg/injection, schedule: Q01DX009 (ip), vehicle: Klucel (hydroxypropylcellulose) (HPC)): 159 % of control | T/C (endpoint: median survival time, dose: 40.0 mg/kg/injection, schedule: Q01DX009 (ip), vehicle: alkali diluted with saline): 123 % of control | T/C (endpoint: median survival time, dose: 50.0 mg/kg/injection, schedule: Q01DX009 (ip), vehicle: Klucel (hydroxypropylcellulose) (HPC)): 259 % of control | T/C (endpoint: median survival time, dose: 50.0 mg/kg/injection, schedule: Q01DX009 (ip), vehicle: alkali diluted with water): 164 % of control | T/C (endpoint: median survival time, dose: 50.0 mg/kg/injection, schedule: Q04DX003 (ip), vehicle: alkali diluted with saline): 101 % of control | T/C (endpoint: median survival time, dose: 60.0 mg/kg/injection, schedule: Q01DX009 (ip), vehicle: alkali diluted with saline): 173 % of control | T/C (endpoint: median survival time, dose: 60.0 mg/kg/injection, schedule: Q01DX009 (ip), vehicle: water): 159 % of control | T/C (endpoint: median survival time, dose: 70.0 mg/kg/injection, schedule: Q01DX009 (ip), vehicle: alkali diluted with saline): 151 % of control and 158 % of control | T/C (endpoint: median survival time, dose: 72.0 mg/kg/injection, schedule: Q01DX009 (ip), vehicle: alkali diluted with saline): 150 % of control | T/C (endpoint: median survival time, dose: 75.0 mg/kg/injection, schedule: Q04DX003 (ip), vehicle: Klucel (hydroxypropylcellulose) (HPC)): 176 % of control | T/C (endpoint: median survival time, dose: 78.0 mg/kg/injection, schedule: Q04DX003 (ip), vehicle: other): 120 % of control | T/C (endpoint: median survival time, dose: 80.0 mg/kg/injection, schedule: Q01DX005 (ip), vehicle: Klucel (hydroxypropylcellulose) (HPC)): 158 % of control | T/C (endpoint: median survival time, dose: 80.0 mg/kg/injection, schedule: Q01DX005 (ip), vehicle: water): 164 % of control | T/C (endpoint: median survival time, dose: 80.0 mg/kg/injection, schedule: Q01DX009 (ip), vehicle: water): 158 % of control | T/C (endpoint: median survival time, dose: 83.3 mg/kg/injection, schedule: Q01DX009 (ip), vehicle: alkali diluted with saline): 160 % of control | T/C (endpoint: median survival time, dose: 100.0 mg/kg/injection, schedule: Q01DX001 (ip), vehicle: alkali diluted with saline): 117 % of control and 122 % of control | T/C (endpoint: median survival time, dose: 100.0 mg/kg/injection, schedule: Q01DX001 (ip), vehicle: alkali diluted with water): 157 % of control | T/C (endpoint: median survival time, dose: 100.0 mg/kg/injection, schedule: Q01DX005 (ip), vehicle: alkali diluted with water): 172 % of control | T/C (endpoint: median survival time, dose: 100.0 mg/kg/injection, schedule: Q01DX009 (ip), vehicle: Klucel (hydroxypropylcellulose) (HPC)): 211 % of control | T/C (endpoint: median survival time, dose: 100.0 mg/kg/injection, schedule: Q04DX003 (ip), vehicle: alkali diluted with saline): 116 % of control | T/C (endpoint: median survival time, dose: 120.0 mg/kg/injection, schedule: Q01DX009 (ip), vehicle: alkali diluted with saline): 154 % of control | T/C (endpoint: median survival time, dose: 150.0 mg/kg/injection, schedule: Q04DX003 (ip), vehicle: Klucel (hydroxypropylcellulose) (HPC)): 178 % of control | T/C (endpoint: median survival time, dose: 160.0 mg/kg/injection, schedule: Q01DX005 (ip), vehicle: Klucel (hydroxypropylcellulose) (HPC)): 164 % of control | T/C (endpoint: median survival time, dose: 200.0 mg/kg/injection, schedule: Q01DX005 (ip), vehicle: alkali diluted with water): 89 % of control | T/C (endpoint: median survival time, dose: 200.0 mg/kg/injection, schedule: Q01DX009 (ip), vehicle: Klucel (hydroxypropylcellulose) (HPC)): 154 % of control | T/C (endpoint: median survival time, dose: 200.0 mg/kg/injection, schedule: Q01DX009 (ip), vehicle: alkali diluted with water): 88 % of control | T/C (endpoint: median survival time, dose: 200.0 mg/kg/injection, schedule: Q04DX003 (ip), vehicle: alkali diluted with saline): 155 % of control | T/C (endpoint: median survival time, dose: 200.0 mg/kg/injection, schedule: Q04DX003 (ip), vehicle: other): 475 % of control | T/C (endpoint: median survival time, dose: 400.0 mg/kg/injection, schedule: Q01DX009 (ip), vehicle: Klucel (hydroxypropylcellulose) (HPC)): 152 % of control | T/C (endpoint: median survival time, dose: 600.0 mg/kg/injection, schedule: Q04DX003 (ip), vehicle: Klucel (hydroxypropylcellulose) (HPC)): 194 % of control
